How the values were obtained:
[1] = test system: CDX2(+) derived cell lines D4 and B2; test: Long-term nutritional deprivation, cellular survival of cell colonies in vitro; format: cell-based
Description: FIG. 6A depicts bar graphs that illustrate the long-term effect of nutritional deprivation on cellular survival in CDX2(−) and CDX2(+) cell colonies in vitro and the effect of treatment with autophagy inhibitors. […] P<0.001.

OVCA429 CDX2 = test: cells; settings: Homo sapiens, OVCA429, 48 h, read-out: 48 h IC50 CQ in adherent culture
Description: (§1) FIG. 7 depicts bar graphs that illustrate the results of an OVCA429 soft agar assay. […] This confirms the effect in human high grade serous ovarian cancer cells. […] CDX2(−) at left. […] P<0.005.

OVCA429 GAL (CDX2(−)) = test: cells; settings: Homo sapiens, OVCA429, 48 h, read-out: 48 h IC50 CQ in adherent culture
Description: as §1

[2] = test system: CDX2(+) ovarian tumours in mice; test: Survival of mice with ovarian tumours treated with chloroquine; format: in vivo, mouse; settings: chloroquine 10 mg/kg 3 times a week, initiated 30 days after delivery of tumor cells
Description: For all experiments aged females (9-10 month) were used, as these represent targeted patient population (e.g., peri-menopausal women). Mice were sacrificed when ascites formed.

[3] = test system: CDX2(+) ovarian cancer cells; test: Hanging drop assay under starvation conditions; format: cell-based, mouse
Description: FIG. 3A depicts a CDX2(−) parental control. FIGS. 3B and 3C depict CDX2(+) derived cell lines. The mouse ovarian cancer cell line MOSEC5 that is CDX2(−) was genetically modified to create CDX2(+) derived cell lines. Cells were placed in a “hanging drop” assay under starvation conditions.

Cdx2-expressing cells = test: Expression of autophagy genes after chloroquine in Cdx2-expressing cells; format: cell-based

SMILES: Cn1cnc(N)c2ncnc1-2 [3-methyladenine]
- survival of CDX2(+) cells after long-term stress [1]: reverse this survival

SMILES: CCN(CC)CCCC(C)Nc1ccnc2cc(Cl)ccc12 (stereo not shown) [chloroquine]
- IC50 (OVCA429 CDX2): 9.3 µM
- IC50 (OVCA429 GAL (CDX2(−))): 11.5 µM
- survival of CDX2(+) cells after long-term stress [1]: reverse this survival
- survival of mice [2]: prolongs survival of mice with ovarian tumours
- survival of mice ([2]; listed as Chloroquine): improved survival in CDX2(+) mice
- cancer cell survival [3]: reduce cancer cell survival
- inhibition of autophagy [3]: did inhibit autophagy
- LAM P1 gene expression (Cdx2-expressing cells): down-regulated
- NPC gene expression (Cdx2-expressing cells): significantly up-regulated
- SQSTM1 gene expression (Cdx2-expressing cells): significantly up-regulated
- ULK2 gene expression (Cdx2-expressing cells): down-regulated
- WIPI1 gene expression (Cdx2-expressing cells): significantly up-regulated
